Series [1] concerns zebra mussels. The settings on record: in vivo; cited from earlier work.
Series [2] deals with adult mussels. The arrangement: species or system zebra mussels. The settings on record: in vivo.

Structures are written as SMILES. “And” between values parts separate entries of the source, which are not always exact repeats. Identical values can stand only once.

In the case of `[K+].[O]=[Mn](=[O])(=[O])[O-]` [KMnO], in series [1], the Mortality rate is reported as no more than 10%. Take `OCl` [NaOCl, sodium hypochlorite]: the Mortality rate in series [1] was no more than 10%. Further, the “Day of treatment on which complete mortality was observed” value in series [2] is 18 days and 23 days.

These data come from patent US9420796B2 (priority 2013, dated 2016).
